Our source for the Kd and IC50 values is US9938261B2, “Heterocyclic compounds and methods of use thereof” (AMBIT BIOSCIENCES CORPORATION, priority 2011, dated 2018).

Where a name gives a salt, the structure may show the parent alone. Read-outs that look alike come from different tables or passages of the source. Where only a bound is given, the exact number is not on record here.

Test [1] deals with T1, CSF1R (Homo sapiens, UniProt P07333). The experiment in a line: Competition binding assay, CSF1R Kd. Also noted: made in house. The essentials:
(§1)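 Compound displacement of kinase from bead-immobilized ligand is measured by qPCR after 1 h equilibration at room temperature. Kinases are T7 phage fusions or DNA-tagged HEK-293 products.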

Another test concerns the target T2, PDGFRβ (Homo sapiens, UniProt P09619).
T2 construct: made in house
The experiment in a line: Competition binding assay, PDGFRβ Kd. A digest of the protocol:
as §1

A further test has as its target T3, KIT (Homo sapiens, UniProt P10721).
T3 construct: made in house
Briefly: Competition binding assay, KIT Kd. The essentials:
as §1

For a further test, the system named is M-NFS-60 cells. The experiment in a line: M-NFS-60 cell proliferation assay (Alamar Blue). The note with it: Mus musculus, read-out: CSF1R M-NFS-60 CTB:IC50. Format: cell-based, mouse. The essentials:
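Alamar Blue reduction (3 h; 560/590 nm) measured viability after 72 h, 37 °C treatment with nine half-log compound concentrations at 0.5% DMSO. Cells: M-CSF-dependent (20 ng/mL) murine M-NFS-60 in RPMI plus 10% FBS. IC50s, averaged from duplicates, reflect half-maximal inhibition of proliferation relative to control.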
A general note: Alamar Blue is a resazurin reagent that responds to reducing activity.

The target of test [2] is T1, CSF1R. Briefly: HEK293 CSF1R phosphorylation MSD assay. The note with it: read-out: HEK293 pCSF1R M-CSF MSD:IC50. The test is classed as cell-based. Also noted: expressed in transfected cells; host or cells: HEK293. A digest of the protocol:
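Ligand-induced CSF1R autophosphorylation was measured by MSD sandwich assay: CSF1R-FKBP from lysates captured via FK506, anti-phosphotyrosine readout. Cells were exposed to compound for 2 h (9-point, half-log, 0.5% DMSO) before 5 min 50 ng/mL M-CSF. Reported IC50 is the mean of duplicate-plate IC50s relative to DMSO control.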

In another test the target is T4, FLT3 (Homo sapiens, UniProt P36888).
T4 construct: made in house
T4 sequence (P36888 27-993): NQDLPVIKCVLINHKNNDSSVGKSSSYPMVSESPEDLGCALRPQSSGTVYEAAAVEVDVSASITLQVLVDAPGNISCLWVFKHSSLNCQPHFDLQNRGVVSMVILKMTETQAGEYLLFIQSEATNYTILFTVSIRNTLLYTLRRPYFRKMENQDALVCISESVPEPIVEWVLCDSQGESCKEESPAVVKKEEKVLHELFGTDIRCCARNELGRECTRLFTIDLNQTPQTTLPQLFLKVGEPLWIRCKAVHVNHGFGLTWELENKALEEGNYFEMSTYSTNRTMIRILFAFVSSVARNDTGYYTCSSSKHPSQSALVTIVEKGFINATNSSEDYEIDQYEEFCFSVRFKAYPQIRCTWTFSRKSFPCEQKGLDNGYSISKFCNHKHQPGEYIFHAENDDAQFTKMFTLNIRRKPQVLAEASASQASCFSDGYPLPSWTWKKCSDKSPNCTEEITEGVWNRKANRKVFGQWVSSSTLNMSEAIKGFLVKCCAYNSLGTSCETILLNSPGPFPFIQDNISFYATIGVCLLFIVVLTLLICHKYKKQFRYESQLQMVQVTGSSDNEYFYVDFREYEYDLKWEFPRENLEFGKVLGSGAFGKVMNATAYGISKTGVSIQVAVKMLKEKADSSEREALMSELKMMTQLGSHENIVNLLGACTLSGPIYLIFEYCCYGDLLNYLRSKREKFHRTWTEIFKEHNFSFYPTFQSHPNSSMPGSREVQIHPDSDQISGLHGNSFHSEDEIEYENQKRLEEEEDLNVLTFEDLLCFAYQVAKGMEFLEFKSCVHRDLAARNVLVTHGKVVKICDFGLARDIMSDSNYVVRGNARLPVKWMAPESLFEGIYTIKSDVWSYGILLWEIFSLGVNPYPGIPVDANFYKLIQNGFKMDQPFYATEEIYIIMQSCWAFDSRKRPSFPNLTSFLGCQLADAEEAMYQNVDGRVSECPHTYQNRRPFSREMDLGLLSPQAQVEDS
Briefly: Competition binding assay, FLT3 Kd. The essentials: as §1

Setting [3] is: 72 hours incubation, M-CSF 20 ng/mL.
Setting [4] is: 2 h compound, human M-CSF 50 ng/mL for 5 min.
The mark [5] stands for this setting: HEK293 cells, M-CSF stimulated CSF1R phosphorylation, MSD.

T1 sequence (P07333 20-972): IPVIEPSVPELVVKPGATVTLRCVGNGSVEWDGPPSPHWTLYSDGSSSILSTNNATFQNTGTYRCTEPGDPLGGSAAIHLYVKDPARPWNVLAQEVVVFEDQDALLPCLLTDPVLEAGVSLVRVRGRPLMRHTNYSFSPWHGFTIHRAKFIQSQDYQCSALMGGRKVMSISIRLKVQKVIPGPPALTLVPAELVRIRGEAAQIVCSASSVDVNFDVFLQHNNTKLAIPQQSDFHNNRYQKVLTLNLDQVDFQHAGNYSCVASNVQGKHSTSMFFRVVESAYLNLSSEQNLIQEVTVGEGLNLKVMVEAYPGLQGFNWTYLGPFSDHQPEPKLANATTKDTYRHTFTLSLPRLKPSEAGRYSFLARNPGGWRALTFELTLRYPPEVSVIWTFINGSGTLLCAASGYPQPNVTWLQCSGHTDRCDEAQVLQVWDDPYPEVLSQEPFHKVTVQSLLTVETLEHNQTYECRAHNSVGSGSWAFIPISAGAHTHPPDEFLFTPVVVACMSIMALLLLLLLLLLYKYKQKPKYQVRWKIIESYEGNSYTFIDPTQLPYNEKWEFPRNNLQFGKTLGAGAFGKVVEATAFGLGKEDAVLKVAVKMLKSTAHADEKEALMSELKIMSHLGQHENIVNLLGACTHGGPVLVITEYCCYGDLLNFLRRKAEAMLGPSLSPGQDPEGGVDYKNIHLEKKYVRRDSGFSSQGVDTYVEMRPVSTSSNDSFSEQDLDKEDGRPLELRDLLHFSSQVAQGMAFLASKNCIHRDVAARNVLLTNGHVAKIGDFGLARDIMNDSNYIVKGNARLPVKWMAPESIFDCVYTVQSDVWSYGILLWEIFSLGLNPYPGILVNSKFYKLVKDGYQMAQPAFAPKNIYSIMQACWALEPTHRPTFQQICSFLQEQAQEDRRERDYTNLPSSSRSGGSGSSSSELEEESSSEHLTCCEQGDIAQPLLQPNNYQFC
T2 sequence (P09619 33-1106): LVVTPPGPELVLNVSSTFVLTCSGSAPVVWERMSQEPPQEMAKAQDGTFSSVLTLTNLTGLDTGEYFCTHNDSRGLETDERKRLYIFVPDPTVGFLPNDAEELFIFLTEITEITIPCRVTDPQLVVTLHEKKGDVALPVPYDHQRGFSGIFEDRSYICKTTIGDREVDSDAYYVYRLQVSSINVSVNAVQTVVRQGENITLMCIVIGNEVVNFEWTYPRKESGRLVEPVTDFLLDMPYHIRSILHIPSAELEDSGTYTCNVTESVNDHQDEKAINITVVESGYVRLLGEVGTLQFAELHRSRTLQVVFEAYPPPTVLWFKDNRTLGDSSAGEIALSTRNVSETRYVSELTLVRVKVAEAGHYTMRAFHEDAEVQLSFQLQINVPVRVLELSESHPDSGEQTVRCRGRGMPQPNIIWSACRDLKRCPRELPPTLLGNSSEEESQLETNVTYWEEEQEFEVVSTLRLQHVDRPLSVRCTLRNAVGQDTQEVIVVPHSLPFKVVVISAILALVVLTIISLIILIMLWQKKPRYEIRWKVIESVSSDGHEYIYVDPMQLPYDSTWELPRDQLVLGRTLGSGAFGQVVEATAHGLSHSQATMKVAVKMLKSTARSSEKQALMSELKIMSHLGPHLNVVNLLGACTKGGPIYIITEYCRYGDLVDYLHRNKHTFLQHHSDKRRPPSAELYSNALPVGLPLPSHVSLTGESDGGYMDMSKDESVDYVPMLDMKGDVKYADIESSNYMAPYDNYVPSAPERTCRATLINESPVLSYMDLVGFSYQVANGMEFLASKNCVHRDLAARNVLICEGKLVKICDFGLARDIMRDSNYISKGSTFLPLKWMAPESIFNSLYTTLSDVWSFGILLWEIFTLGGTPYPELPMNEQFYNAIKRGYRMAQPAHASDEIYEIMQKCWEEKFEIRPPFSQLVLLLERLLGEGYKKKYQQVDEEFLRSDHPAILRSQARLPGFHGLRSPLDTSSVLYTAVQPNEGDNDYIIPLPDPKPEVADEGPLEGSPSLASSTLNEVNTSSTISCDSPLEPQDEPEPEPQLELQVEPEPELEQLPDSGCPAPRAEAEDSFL
T3 sequence (P10721 26-976): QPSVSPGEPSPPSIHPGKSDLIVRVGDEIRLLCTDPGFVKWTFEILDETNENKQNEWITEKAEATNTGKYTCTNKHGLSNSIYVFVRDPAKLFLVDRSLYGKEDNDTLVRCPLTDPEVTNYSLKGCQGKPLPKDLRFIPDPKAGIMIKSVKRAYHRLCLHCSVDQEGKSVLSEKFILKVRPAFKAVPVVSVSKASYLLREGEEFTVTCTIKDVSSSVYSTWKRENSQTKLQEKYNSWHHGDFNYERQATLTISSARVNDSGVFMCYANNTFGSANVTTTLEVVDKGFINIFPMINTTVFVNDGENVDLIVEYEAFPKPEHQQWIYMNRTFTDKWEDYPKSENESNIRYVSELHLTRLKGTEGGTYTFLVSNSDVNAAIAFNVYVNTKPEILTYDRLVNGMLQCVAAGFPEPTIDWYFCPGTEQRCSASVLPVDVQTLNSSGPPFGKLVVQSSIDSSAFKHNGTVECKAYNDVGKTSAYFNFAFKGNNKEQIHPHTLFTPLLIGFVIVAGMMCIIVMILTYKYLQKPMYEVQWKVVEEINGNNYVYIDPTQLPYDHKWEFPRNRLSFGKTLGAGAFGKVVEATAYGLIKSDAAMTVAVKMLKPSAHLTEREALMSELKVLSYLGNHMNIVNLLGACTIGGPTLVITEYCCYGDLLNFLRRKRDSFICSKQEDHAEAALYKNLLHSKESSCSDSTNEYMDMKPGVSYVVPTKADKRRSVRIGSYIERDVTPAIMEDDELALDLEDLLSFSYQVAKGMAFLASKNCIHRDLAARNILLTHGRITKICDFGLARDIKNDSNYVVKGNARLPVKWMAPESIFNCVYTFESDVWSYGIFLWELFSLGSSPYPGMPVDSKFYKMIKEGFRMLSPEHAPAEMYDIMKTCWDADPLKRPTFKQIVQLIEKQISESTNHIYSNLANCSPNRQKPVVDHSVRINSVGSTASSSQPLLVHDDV

The term Kd denotes the equilibrium constant for the complex coming apart. Read a high Kd as weaker binding. By IC50 is commonly meant the concentration that inhibits the measured activity by half. As for `CCOc1ccccc1Nc1nc2ccc(Cn3cnc4cc(OC)c(OC)cc43)cc2s1` [Example 27, 6-((5,6-dimethoxy-1H-benzo[d]imidazol-1-yl)methyl)-N-(2-ethoxyphenyl)benzo[d]thiazol-2-amine], the Kd on CSF1R [1] lay in the range of 5 to 20 nM; at PDGFRβ, 50 to 500 nM; on KIT, 100 to 500 nM; on FLT3, 1000 to 5000 nM. Besides, the IC50 in the test with M-NFS-60 cells (setting [3]) was in the range of 50 to 400 nM; on CSF1R [2] (setting [4]) it was 50 to 200 nM.

For `COc1cc2ncn(Cc3ccc4nc(N(C)C5CCCCC5)sc4c3)c2cc1OC` [Example 16, N-cyclohexyl-6-((5,6-dimethoxy-1H-benzo[d]imidazol-1-yl)methyl)-N-methylbenzo[d]thiazol-2-amine], the Kd on CSF1R [1] was 20 to 50 nM; on PDGFRβ, 500 to 2000 nM; on KIT, 100 to 500 nM; at FLT3 it was 200 to 1000 nM. For the same compound, the results for the IC50 in the test on M-NFS-60 cells (setting [3]) and at CSF1R [2] (setting [4]) were more than 1500 nM and 200 to 500 nM, respectively.

On to `Cn1cc(-c2nccn(Cc3ccc4nc(N[C@@H]5CCCC[C@H]5O)sc4c3)c2=O)cn1` [Example 103, 1-((2-(((1R,2R)-2-hydroxycyclohexyl)amino)benzo[d]thiazol-6-yl)methyl)-3-(1-methyl-1H-pyrazol-4-yl)pyrazin-2(1H)-one], for which the Kd was 5 to 20 nM at CSF1R [1], 50 to 500 nM at PDGFRβ, more than 2000 nM on KIT and more than 5000 nM on FLT3. The IC50 in the test on M-NFS-60 cells (setting [3]) fell in the range of 50 to 400 nM; on CSF1R [2] (setting [4]) it was 50 to 200 nM.

On to `COc1cc2ncn(Cc3ccc4nc(NCCN5CCOCC5)sc4c3)c2cc1OC` [Example 14, 6-((5,6-dimethoxy-1H-benzo[d]imidazol-1-yl)methyl)-N-(2-morpholinoethyl)benzo[d]thiazol-2-amine], for which the Kd at CSF1R [1] is more than 50 nM; at PDGFRβ, 500 to 2000 nM; at KIT, more than 2000 nM; at FLT3, 1000 to 5000 nM. Moreover, the results for the IC50 in the test with M-NFS-60 cells (setting [3]) and on CSF1R [2] (setting [4]) were more than 1500 nM and more than 500 nM, respectively.

As for `COc1cc2ncn(Cc3ccc4nc(NC5CCOC5)sc4c3)c2cc1OC` (racemic) [Example 25, (R,S)-6-((5,6-dimethoxy-1H-benzo[d]imidazol-1-yl)methyl)-N-(tetrahydrofuran-3-yl)benzo[d]thiazol-2-amine acetic acid], the equilibrium dissociation constant (Kd) at CSF1R [1] was more than 50 nM; on PDGFRβ, more than 2000 nM; on KIT it was more than 2000 nM; at FLT3, more than 5000 nM. Moreover, the IC50 in the test with M-NFS-60 cells (setting [3]) was more than 1500 nM; on CSF1R [2] (setting [4]) it was more than 500 nM.

With `COc1ccc2ncn(Cc3ccc4nc(N[C@@H]5CCCC[C@H]5O)sc4c3)c2n1` [Example 23, (1R,2R)-2-((6-((5-methoxy-3H-imidazo[4,5-b]pyridin-3-yl)methyl)benzo[d]thiazol-2-yl)amino)cyclohexanol], the Kd was not above 5 nM at CSF1R [1], 50 to 500 nM at PDGFRβ, not above 100 nM at KIT and not above 200 nM at FLT3. For the same compound, the IC50 with M-NFS-60 cells (setting [3]) was 50 to 400 nM; at CSF1R [2] (setting [4]), not above 50 nM.

On to `CC(=O)c1ccc2ncn(Cc3ccc4nc(N[C@@H]5CCCC[C@H]5O)sc4c3)c2n1` [Example 88, 1-(3-((2-(((1R,2R)-2-hydroxycyclohexyl)amino)benzo[d]thiazol-6-yl)methyl)-3H-imidazo[4,5-b]pyridin-5-yl)ethanone], for which the Kd is not above 5 nM at CSF1R [1], 50 to 500 nM at PDGFRβ, not above 100 nM at KIT and 200 to 1000 nM on FLT3. The IC50 in the test with M-NFS-60 cells (setting [3]) is not above 50 nM; on CSF1R [2] (setting [4]) it was 50 to 200 nM.

In the case of `N=C(NO)c1cnc2c(c1)ncn2Cc1ccc2nc(N[C@@H]3CCCC[C@H]3O)sc2c1` [Example 90, N-hydroxy-3-((2-(((1R,2R)-2-hydroxycyclohexyl)amino)benzo[d]thiazol-6-yl)methyl)-3H-imidazo[4,5-b]pyridine-6-carboximidamide], the Kd is 5 to 20 nM on CSF1R [1], 50 to 500 nM at PDGFRβ, 100 to 500 nM on KIT and 1000 to 5000 nM on FLT3. The IC50 in the test on M-NFS-60 cells (setting [3]) is 50 to 400 nM; at CSF1R [2] (setting [4]) it was 50 to 200 nM.

Take `COc1ccc2ncn(Cc3ccc4nc(N[C@@H]5CCCC[C@H]5O)sc4c3)c2c1` [Example 67, (1R,2R)-2-((6-((6-methoxy-1H-benzo[d]imidazol-1-yl)methyl)benzo[d]thiazol-2-yl)amino)cyclohexanol]: the Kd on CSF1R [1] is 5 to 20 nM; at PDGFRβ, 50 to 500 nM; at KIT it was not above 100 nM; on FLT3, 1000 to 5000 nM. The IC50 is 50 to 400 nM in the test on M-NFS-60 cells (setting [3]) and 50 to 200 nM at CSF1R [2] (setting [4]).

`COc1cc2ncn(Cc3ccc4nc(N[C@H]5CCc6ccccc65)sc4c3)c2cc1OC` [Example 11, (S)—N-(2,3-dihydro-1H-inden-1-yl)-6-((5,6-dimethoxy-1H-benzo[d]imidazol-1-yl)methyl)benzo[d]thiazol-2-amine]: the equilibrium dissociation constant (Kd) at CSF1R [1] fell in the range of 5 to 20 nM; on PDGFRβ, 50 to 500 nM; on KIT, 100 to 500 nM; at FLT3, 200 to 1000 nM. Besides, the IC50 fell in the range of 400 to 1500 nM in the test with M-NFS-60 cells (setting [3]) and 200 to 500 nM at CSF1R [2] (setting [4]).

Consider `COc1cc2ncn(Cc3ccc4nc(N[C@@H]5CCCCC5O)sc4c3)c2cc1OC` (stereo in doubt) [Example 2, (1R,2R)-2-((6-((5,6-dimethoxy-1H-benzo[d]imidazol-1-yl)methyl)benzo[d]thiazol-2-yl)amino)cyclohexanol], for which the Kd at CSF1R [1] fell in the range of 5 to 20 nM; at PDGFRβ, 50 to 500 nM; at KIT, 100 to 500 nM; on FLT3 it was 200 to 1000 nM. Also, the IC50 was 50 to 400 nM in the test with M-NFS-60 cells (setting [3]) and not above 50 nM on CSF1R [2] (setting [4]).

On to `COc1cc2ncn(Cc3ccc4nc(NC5CCCCC5)sc4c3)c2cc1OC` [Example 18, N-cyclohexyl-6-((5,6-dimethoxy-1H-benzo[d]imidazol-1-yl)methyl)benzo[d]thiazol-2-amine], for which the Kd at CSF1R [1] is not above 5 nM; on PDGFRβ it was not above 50 nM; on KIT, not above 100 nM; at FLT3, not above 200 nM. Also, the IC50 with M-NFS-60 cells (setting [3]) was 50 to 400 nM; at CSF1R [2] (setting [4]), not above 50 nM.

`O[C@H]1CCCCC1Nc1nc2ccc(Cn3cnc4cc(F)cnc43)cc2s1` (stereo in doubt) [Example 213, (1S,2S)-2-((6-((6-fluoro-3H-imidazo[4,5-b]pyridin-3-yl)methyl)benzo[d]thiazol-2-yl)amino)cyclohexanol]: the Kd on CSF1R [1] (competition binding) is not above 5 nM; at PDGFRβ (competition binding), not above 50 nM; at KIT (competition binding), not above 100 nM; at FLT3 (competition binding) it was 200 to 1000 nM. For the same compound, the IC50 in the test on M-NFS-60 cells (M-NFS-60 cell proliferation) lay in the range of 50 to 400 nM; at CSF1R [2] (setting [5]) it was 50 to 200 nM.

For `CN(C)CC(=O)c1cnc2c(c1)ncn2Cc1ccc2nc(N[C@@H]3CCCC[C@H]3O)sc2c1` [Example 116, 2-(dimethylamino)-1-(3-((2-(((1R,2R)-2-hydroxycyclohexyl)amino)benzo[d]thiazol-6-yl)methyl)-3H-imidazo[4,5-b]pyridine-6-yl)ethanone acetate salt], the Kd at CSF1R [1] (competition binding) is 5 to 20 nM; at PDGFRβ (competition binding) it was 50 to 500 nM; on KIT (competition binding), 100 to 500 nM; on FLT3 (competition binding) it was 200 to 1000 nM. Also, the concentration for half-maximal inhibition (IC50) is more than 1500 nM with M-NFS-60 cells (M-NFS-60 cell proliferation) and 50 to 200 nM at CSF1R [2] (setting [5]).

Turning to `COc1cc2ncn(Cc3ccc4nc(NC[C@H]5CCCO5)sc4c3)c2cc1OC` [Example 8, (R)-6-((5,6-dimethoxy-1H-benzo[d]imidazol-1-yl)methyl)-N-((tetrahydrofuran-2-yl)methyl)benzo[d]thiazol-2-amine], the dissociation constant Kd on CSF1R [1] was 5 to 20 nM; on PDGFRβ, 500 to 2000 nM; on KIT it was 500 to 2000 nM; at FLT3, 1000 to 5000 nM. Further, the IC50 with M-NFS-60 cells (setting [3]) is more than 1500 nM; on CSF1R [2] (setting [4]), 200 to 500 nM.
